The results in this text go back to ChEMBL document CHEMBL1158712, “Acetylated aporphine alkaloids from Lysichiton camtschatcense” (J Nat Prod, 2005).

One may read the IC50 as the concentration that gives 50% inhibition.

Experiment [1] concerns Radical scavenging activity. Description: Antioxidant activity assessed as DPPH radical scavenging activity after 30 mins. The experiment is classed as functional.
Experiment [2] deals with Radical scavenging activity. Put plainly: Antioxidant activity assessed as DPPH radical scavenging activity after 48 hrs. Format: functional. A general note: Loss of DPPH colour is used to gauge radical scavenging.

In the case of `COc1cc2c3c(c1OC)-c1ccccc1[C@H](OC(C)=O)[C@H]3N(C(C)=O)CC2`, in experiment [1], the Activity is below 10%. The IC50 in experiment [2] was determined as 362 µM.

As for `CC(=O)O[C@H]1c2ccccc2-c2c3c(cc4c2[C@@H]1N(C(C)=O)CC4)OCO3`, the Activity in experiment [1] was below 10%. Besides, in experiment [2], the IC50 was 518 µM.
